Where two headings read alike, the source gives them in different places.
Molecular target: T1, BCL6 (Homo sapiens, UniProt P41182)
T1 construct: endogenous in cells; host or cells: T47D breast cancer epithelial cells
Assay: Immunofluorescence protocol for high content imaging of BCL6 (degradation) in T47D cells, 3 days compound treatment
Format: cell-based
Conditions: for DC50: read-out: Mean DC50 (nM)* category; for Dmax: read-out: Mean Dmax (%)** category
Outline: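 Cells are seeded to reach ~70-90% confluence at endpoint, then dosed next day with compound at a final top concentration of 0.1 or 1 μM (11 points, 3-fold). After 3 days, BCL6 is detected by immunofluorescence and quantified by high-content imaging.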

[1] = T47D cells, 3 days compound treatment

Row | Structure (SMILES) | DC50 [1] | Dmax [1] | Dmax (T47D) | DC50
1 | CNC(=O)COc1cc2cc(Nc3nc(N4CCC(O[C@H]5C[C@H](N6CCC(c7ccc8c(c7F)CN([C@@H]7CCC(=O)NC7=O)C8=O)CC6)C5)CC4)ncc3Cl)ccc2n(C(C)C)c1=O [Compound 384, 2-({6-[(5-chloro-2-{4-[(1r,3r)-3-(4-{2-[(3R)-2,6-dioxopiperidin-3-yl]-4-fluoro-1-oxo-2,3-dihydro-1H-isoindol-5-yl}piperidin-1-yl)cyclobutoxy]piperidin-1-yl}pyrimidin-4-yl)amino]-2-oxo-1-(propan-2-yl)-1,2-dihydroquinolin-3-yl}oxy)-N-methylacetamide] |  |  | 50 to 70% | < 10 nM
2 | CNC(=O)COc1cc2cc(Nc3nc(N4CCN(CC5CCN(c6ccc(OC)c7c6CN(C6CCC(=O)NC6=O)C7=O)CC5)CC4)ncc3Cl)ccc2n(C(C)C)c1=O (stereo not shown) [Compound 121, 2-{[6-({5-chloro-2-[4-({1-[2-(2,6-dioxopiperidin-3-yl)-7-methoxy-1-oxo-2,3-dihydro-1H-isoindol-4-yl]piperidin-4-yl}methyl)piperazin-1-yl]pyrimidin-4-yl}amino)-2-oxo-1-(propan-2-yl)-1,2-dihydroquinolin-3-yl]oxy}-N-methylacetamide] | < 10 nM | 50 to 70% |  | 
3 | CNC(=O)COc1cc2cc(Nc3nc(N4CCC(O[C@H]5C[C@H](N6CCC(c7ccc8c(c7F)CN(C7CCC(=O)NC7=O)C8=O)CC6)C5)CC4)ncc3Cl)ccc2n(C2CCCCC2)c1=O (stereo partly shown) [Compound 411, 2-({6-[(5-chloro-2-{4-[(1r,3r)-3-{4-[2-(2,6-dioxopiperidin-3-yl)-4-fluoro-1-oxo-2,3-dihydro-1H-isoindol-5-yl]piperidin-1-yl}cyclobutoxy]piperidin-1-yl}pyrimidin-4-yl)amino]-1-cyclohexyl-2-oxo-1,2-dihydroquinolin-3-yl}oxy)-N-methylacetamide] |  |  | ≥ 70% | < 10 nM
4 | CNC(=O)COc1cc2cc(Nc3nc(N4CCN(C(C)(C)C5CCN(c6cc7c(cc6OC)C(=O)N(C6CCC(=O)NC6=O)C7)CC5)CC4)ncc3Cl)ccc2n(C(C)C)c1=O (stereo not shown) [Compound 112, 2-{[6-({5-chloro-2-[4-(2-{1-[2-(2,6-dioxopiperidin-3-yl)-6-methoxy-1-oxo-2,3-dihydro-1H-isoindol-5-yl]piperidin-4-yl}propan-2-yl)piperazin-1-yl]pyrimidin-4-yl}amino)-2-oxo-1-(propan-2-yl)-1,2-dihydroquinolin-3-yl]oxy}-N-methylacetamide] | < 10 nM | 50 to 70% |  | 
5 | CNC(=O)COc1cc2cc(Nc3nc(N4CCC(O[C@H]5C[C@H](N6CCC7(CC6)CN(c6ccc8c(c6)C(=O)N(C6CCC(=O)NC6=O)C8=O)C7)C5)CC4)ncc3Cl)ccc2n(C(C)C)c1=O (stereo partly shown) [Compound 357, 2-({6-[(5-chloro-2-{4-[(1r,3r)-3-{2-[2-(2,6-dioxopiperidin-3-yl)-1,3-dioxo-2,3-dihydro-1H-isoindol-5-yl]-2,7-diazaspiro [3.5]nonan-7-yl}cyclobutoxy]piperidin-1-yl}pyrimidin-4-yl)amino]-2-oxo-1-(propan-2-yl)-1,2-dihydroquinolin-3-yl}oxy)-N-methylacetamide] |  |  | ≥ 70% | < 10 nM
6 | CNC(=O)COc1cc2c(F)c(Nc3nc(N4CCC(O[C@H]5C[C@H](N6CCC(c7ccc8c(c7F)CN(C7CCC(=O)NC7=O)C8=O)CC6)C5)CC4)ncc3Cl)ccc2n(C(C)C)c1=O (stereo partly shown) [Compound 173] | < 10 nM | ≥ 70% |  | 
7 | CNC(=O)COc1cc2cc(Nc3nc(N4CCC(CN5CCC6(CC5)CN(c5ccc7c(c5OC)CN(C5CCC(=O)NC5=O)C7=O)C6)CC4)ncc3Cl)ccc2n(C(C)C)c1=O (stereo not shown) [Compound 302, 2-{[6-({5-chloro-2-[4-({2-[2-(2,6-dioxopiperidin-3-yl)-4-methoxy-1-oxo-2,3-dihydro-1H-isoindol-5-yl]-2,7-diazaspiro[3.5]nonan-7-yl}methyl)piperidin-1-yl]pyrimidin-4-yl}amino)-2-oxo-1-(propan-2-yl)-1,2-dihydroquinolin-3-yl]oxy}-N-methylacetamide] |  |  | 50 to 70% | < 10 nM
8 | CNC(=O)COc1cc2cc(Nc3nc(N4CCC(C(C)(C)N5CC6(CCN(c7cccc8c7CN(C7CCC(=O)NC7=O)C8=O)CC6)C5)CC4)ncc3Cl)ccc2n(C(C)C)c1=O (stereo not shown) [Compound 8, 2-{[6-({5-chloro-2-[4-(2-{7-[2-(2,6-dioxopiperidin-3-yl)-1-oxo-2,3-dihydro-1H-isoindol-4-yl]-2,7-diazaspiro[3.5]nonan-2-yl}propan-2-yl)piperidin-1-yl]pyrimidin-4-yl}amino)-2-oxo-1-(propan-2-yl)-1,2-dihydroquinolin-3-yl]oxy}-N-methylacetamide] | < 10 nM | ≥ 70% |  | 
9 | CNC(=O)COc1cc2cc(Nc3nc(N4CCC(N5CCC56CN(C5CCN(c7ccc8c(c7)C(=O)N(C7CCC(=O)NC7=O)C8=O)CC5)C6)CC4)ncc3Cl)ccc2n(C(C)C)c1=O (stereo not shown) [Compound 220, 2-{[6-({5-chloro-2-[4-(6-{1-[2-(2,6-dioxopiperidin-3-yl)-1,3-dioxo-2,3-dihydro-1H-isoindol-5-yl]piperidin-4-yl}-1,6-diazaspiro[3.3]heptan-1-yl)piperidin-1-yl]pyrimidin-4-yl}amino)-2-oxo-1-(propan-2-yl)-1,2-dihydroquinolin-3-yl]oxy}-N-methylacetamide] |  |  | 50 to 70% | 10 to 50 nM
10 | CNC(=O)COc1cc2cc(Nc3nc(N4CCC(O[C@H]5C[C@H](N6CCC(c7c(F)cc8c(c7F)CN(C7CCC(=O)NC7=O)C8=O)CC6)C5)CC4)ncc3Cl)ccc2n(C(C)C)c1=O (stereo partly shown) [Compound 116, 2-({6-[(5-chloro-2-{4-[(1r,3r)-3-{4-[2-(2,6-dioxopiperidin-3-yl)-4,6-difluoro-1-oxo-2,3-dihydro-1H-isoindol-5-yl]piperidin-1-yl}cyclobutoxy]piperidin-1-yl}pyrimidin-4-yl)amino]-2-oxo-1-(propan-2-yl)-1,2-dihydroquinolin-3-yl}oxy)-N-methylacetamide] | < 10 nM | 50 to 70% |  | 

The next lines start with results.

Row | DC50 [1] | Dmax [1] | Structure (SMILES) | Dmax (T47D) | DC50
11 | < 10 nM |  | CNC(=O)COc1cc2cc(Nc3nc(N4CCN(CC5C6CN(c7cccc8c7C(=O)N(C7CCC(=O)NC7=O)C8=O)CC56)CC4)ncc3Cl)ccc2n(C(C)C)c1=O (stereo not shown) [Compound 156, 2-{[6-({5-chloro-2-[4-({3-[2-(2,6-dioxopiperidin-3-yl)-1,3-dioxo-2,3-dihydro-1H-isoindol-4-yl]-3-azabicyclo[3.1.0]hexan-6-yl}methyl)piperazin-1-yl]pyrimidin-4-yl}amino)-2-oxo-1-(propan-2-yl)-1,2-dihydroquinolin-3-yl]oxy}-N-methylacetamide] |  | 
12 | < 10 nM | 50 to 70% | CNC(=O)COc1cc2cc(Nc3nc(N4CCC(CN5CCC6(CN(c7cccc8c7C(=O)N(C7CCC(=O)NC7=O)C8=O)C6)C(F)(F)C5)CC4)ncc3Cl)ccc2n(C(C)C)c1=O (stereo not shown) [Compound 91, 2-{[6-({5-chloro-2-[4-({2-[2-(2,6-dioxopiperidin-3-yl)-1,3-dioxo-2,3-dihydro-1H-isoindol-4-yl]-5,5-difluoro-2,7-diazaspiro[3.5]nonan-7-yl}methyl)piperidin-1-yl]pyrimidin-4-yl}amino)-2-oxo-1-(propan-2-yl)-1,2-dihydroquinolin-3-yl]oxy}-N-methylacetamide] |  | 
13 | 50 to 100 nM | < 50% | CNC(=O)COc1cc2cc(Nc3nc(N4CCN(C[C@H]5C[C@@H](N6CCC(c7cccc8c7C(=O)N(C7CCC(=O)NC7=O)C8=O)CC6)C5)CC4)ncc3Cl)ccc2n(C(C)C)c1=O (stereo partly shown) [Compound 23, 2-[(6-{[5-chloro-2-(4-{[(1s,3s)-3-{4-[2-(2,6-dioxopiperidin-3-yl)-1,3-dioxo-2,3-dihydro-1H-isoindol-4-yl]piperidin-1-yl}cyclobutyl]methyl}piperazin-1-yl)pyrimidin-4-yl]amino}-2-oxo-1-(propan-2-yl)-1,2-dihydroquinolin-3-yl)oxy]-N-methylacetamide] |  | 
14 | ≥ 100 nM | ≥ 70% | CNC(=O)COc1cc2cc(Nc3nc(N4CCC(CN5CCC6(CC5)CN(c5ccc7c(c5)C(=O)N(C5CCC(=O)NC5=O)C7=O)C6=O)CC4)ncc3Cl)ccc2n(C(C)C)c1=O (stereo not shown) [Compound 65, 2-{[6-({5-chloro-2-[4-({2-[2-(2,6-dioxopiperidin-3-yl)-1,3-dioxo-2,3-dihydro-1H-isoindol-5-yl]-1-oxo-2,7-diazaspiro[3.5]nonan-7-yl}methyl)piperidin-1-yl]pyrimidin-4-yl}amino)-2-oxo-1-(propan-2-yl)-1,2-dihydroquinolin-3-yl]oxy}-N-methylacetamide] |  | 
15 | ≥ 100 nM | ≥ 70% | CCNC(=O)COc1cc2cc(Nc3nc(N4CCC(CN5CCC6(CC5)CN(c5ccc7c(c5)C(=O)N(C5CCC(=O)NC5=O)C7=O)C6)CC4)ncc3Cl)ccc2n(C(C)C)c1=O (stereo not shown) [Compound 56, 2-{[6-({5-chloro-2-[4-({2-[2-(2,6-dioxopiperidin-3-yl)-1,3-dioxo-2,3-dihydro-1H-isoindol-5-yl]-2,7-diazaspiro[3.5]nonan-7-yl}methyl)piperidin-1-yl]pyrimidin-4-yl}amino)-2-oxo-1-(propan-2-yl)-1,2-dihydroquinolin-3-yl]oxy}-N-ethylacetamide] |  | 
16 | < 10 nM | 50 to 70% | CNC(=O)COc1cc2cc(Nc3nc(N4CCC(CN5CCC6(CC5)CN(c5ccc7c(c5)C(=O)N(C5CCC(=O)NC5=O)C7=O)C6)CC4)ncc3Cl)ccc2n(C2CC2)c1=O (stereo not shown) [Compound 50, 2-{[6-({5-chloro-2-[4-({2-[2-(2,6-dioxopiperidin-3-yl)-1,3-dioxo-2,3-dihydro-1H-isoindol-5-yl]-2,7-diazaspiro[3.5]nonan-7-yl}methyl)piperidin-1-yl]pyrimidin-4-yl}amino)-1-cyclopropyl-2-oxo-1,2-dihydroquinolin-3-yl]oxy}-N-methylacetamide] |  | 

Source: patent US11986532B2 (Arvinas Operations, Inc., priority 2021, dated 2024)
